Results published in US7947279B2, “Peptide having hydrolase activity” (The Trustees of Columbia University in the City of New York, priority 2005, dated 2011).
“Also recorded” adds a separate entry of the source.

How the values were obtained:
mice (WT and APP/PS1) = experiment: Contextual and cued fear conditioning; format: in vivo, mouse; settings: for freezing time in contextual learning: at 21 days
Description: Behavioral Studies: Fear conditioning was performed in a conditioning chamber as previously described (Bourtchuladze et al., 1994; Gong et al., 2004). For contextual and cued fear conditioning mice were placed in the conditioning chamber for 2 min before the onset of a discrete tone (CS) (a 30 sec sound at 2800 Hz and 85 dB). In the last 2 sec of the CS, mice were given a foot shock (US) of 0.50 mA for 2 sec through the bars of the floor. After the CS/US pairing, the mice were left in the conditioning chamber for another 30 sec and then placed back in their home cages. Freezing behavior, defined as the absence of all movement except for that necessitated by breathing, was scored using Freezeview software. To evaluate contextual fear learning, freezing was measured for 5 min in the chamber in which the mice were trained 24 hrs after training. To evaluate cued fear conditioning, following contextual testing, the mice were placed in a novel context (triangular cage with smooth flat floor and with vanilla odorant) for 2 min (pre-CS test), after which they were exposed to the CS for 3 min (CS test), and freezing was measured. To evaluate the contextual fear over time, mice were placed for 5 min in the chamber in which the mice were trained 7- 14- 21-days after training. Sensory perception of the shock was determined through threshold assessment. Each animal was placed individually into the conditioning chamber. […] Animal behavior was evaluated for the first visible response to the shock (flinch), the first extreme motor response (run/jump), and the first vocalized distress (scream). Threshold to flinching, jumping, and screaming was quantified for each animal by averaging of the shock intensity at which each animal manifested a behavioral response of that type to the foot shock. Visual, motor, and motivation skills were also tested with visible platform training by measuring the time and the speed to reach a visible platform placed within a pool filled with water (Gong et al., 2004). Both time to reach the platform and swimming speed were recorded and analyzed with a video tracking system (HVS-2020, HVS Image, UK). No difference was observed among different groups of mice in the experiments in which fear conditioning was tested both in the presence of LDN and TAT fusion proteins. To decide the time of administration of LDN, experiments were performed in which the inhibitor was injected intra-peritoneally at different intervals (4 hrs before, 1 hr before, 1 hr after and 4 hrs after) from the electric shock. During the training phase, no difference was found in the freezing of LDN- or vehicle-injected mice.

[1] = system: CA1-LTP in hippocampal slices; experiment: CA1-LTP in hippocampal slices (theta-burst); format: cell-based, mouse
[2] = system: BST at the Schaffer collateral/CA1 connection of hippocampal slices; experiment: Basal synaptic transmission (BST) in hippocampal slices; format: cell-based, mouse
phospho-CREB at Ser-133 = experiment: Phospho-CREB (Ser-133) Western blot in hippocampal cultures; format: cell-based, rat; settings: LDN 10 μM
Description: Western Blotting: Protein levels were assessed using standard procedures. Protein extraction was performed using buffer with and without detergent. For the extraction of protein using detergent, hippocampal tissues and cultured hippocampal neurons (5 DIV) were homogenized in RIPA buffer (50 mM Tris-HCl pH 7.4, 1% Triton X-100, 1% sodium deoxycholate, 0.1% SDS, 150 mM sodium chloride, 10 mM sodium fluoride, 30 mM sodium pyrophosphate, 50 mM sodium orthovanadate) containing 1× complete protease inhibitor (Roche) and 1 mM phenylmethylsulfonyl fluoride (PMSF). For extraction of proteins without detergent, hippocampal extracts were homogenized with disposable dounce homogenizers in buffer A, containing 10 mM HEPES pH 7.3, 300 mM sucrose, protease 1× complete protease inhibitor (Roche) and PMSF. After centrifugation at 10,000×g supernatant proteins were resolved on a 8% or 4-20% gradient Tris-Glycine gel, transferred onto PVDF or nitrocellulose membrane and blocked in 5% skim milk in PBS-Tween 0.1% (PBS-T). Membranes were probed with primary antibodies, and after washing with PBS-T incubated with an appropriate HRP-conjugated secondary antibody. The following antibodies were used: mouse monoclonal anti-ubiquitin (Chemicon), rabbit polyclonal anti-pCREB (Upstate Biotech.), rabbit polyclonal anti-PKA-RIIα (Santa Cruz Biotech. Inc), mouse monoclonal anti-Uch-L1 (Novocastra), monoclonal mouse anti-HA (Santa Cruz Biotech. Inc), and anti-PKA IIα. Detection was performed using HRP-conjugated secondary antibodies (Pierce, Rockford, Ill.). To control loading and transfer, protein immunoreactivities were normalized against total extracellular signal-regulated protein kinases (ERK1/2) levels with a rabbit analyzed using a rabbit polyclonal anti-ERK1/2 antibody (Cell Signaling Technology, Inc). NIH IMAGE was used to analyze the scanned blots and quantify the intensity of the protein signals.
Preparation of Cell Cultures. Hippocampal cell cultures were prepared as previously described (Vitolo et al., 2002). In cell culture experiments fetuses at embryonic day 18 from timed pregnant Sprague-Dawley rats (Taconic Farms) were used. Fetuses were sacrificed and the hippocampi removed. Neurons were then dissociated, plated on 6 well-plates coated with poly-L-lysine and maintained in a defined serum-free medium containing minimum essential medium supplemented with N-2, glucose, albumin, pyruvic acid, antibiotics and antimycotics. […] 5 DIV cells were used for the experiments.

[3] = system: SY5Y neuroblastoma cells transfected with a degron CL1-GFP expression vector; experiment: Proteasome reporter assay (GFP^u); format: cell-based, human; settings: substance alone
Summary of the method: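 SH-SY5Y neuroblastoma cells stably expressing GFP fused to CL1 degron (GFP^u) in DMEM with 15% FBS. After treatment, GFP^u levels quantified by densitometry of anti-GFP immunoblots of total extracts (10 ug/lane), normalized to ERK.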

[4] = LDN 5 μM, 15 min, listed as LDN

## CC(=O)O/N=C1\C(=O)N(Cc2cc(Cl)ccc2Cl)c2ccc(Cl)cc21 [LDN-57444, reference compound]
Mice (WT and APP/PS1); LDN 0.4 mg/kg i.p.
  cued fear conditioning: did not show a difference
  freezing time in contextual learning: about 70 % of vehicle-treated mice
Mice (WT and APP/PS1); LDN 0.4 mg/kg i.p. 4 hrs after the electric shock, twenty-four hours later
  freezing time in contextual conditioning: 74 % of that of vehicle-treated mice
Mice (WT and APP/PS1); LDN 0.4 mg/kg i.p., listed as LDN
  freezing time in contextual learning: 70 % of vehicle-treated mice
Mice (WT and APP/PS1); LDN 0.4 mg/kg i.p., context at 1, 7, 14 and 21 days after training
  contextual conditioning performance: worsened contextual conditioning performance
Mice (WT and APP/PS1); LDN injected at 4 and 1 hour before the shock or at 1 hour after the shock
  contextual learning: failed to impair contextual learning
Mice (WT and APP/PS1); LDN- versus vehicle-injected mice
  freezing during the training phase: no difference
[1]; LDN 1 μM, 2-4 hr, listed as LDN
  LTP: has no effect
[1]; LDN 2.7 μM, 2-4 hr, listed as LDN
  LTP: reduces CA1-LTP
[1]; LDN 5 μM for 2 hrs, 200 nM Aβ, listed as LDN
  LTP in Aβ-treated slices: does not further reduce potentiation; also recorded: did not further reduce LTP
[1]; LDN 5 μM for 2 hrs, listed as LDN
  LTP in APP/PS1 slices: does not further reduce potentiation; also recorded: did not further reduce LTP
[1]; LDN 5 μM, 15 min
  LTP: did not affect BST or LTP; also recorded: did not affect CA1-LTP
[1]; [4]
  LTP: did not affect basal synaptic transmission (BST) or LTP; also recorded: did not affect CA1-LTP
[1]; LDN 5 μM, 2 hrs
  LTP: blocked
[1]; LDN 5 μM, 2 hrs, listed as LDN
  LTP: diminished LTP; also recorded: reduced
[1]; LDN 5 μM, 4 hrs
  LTP: strongly reduced
[1]; LDN 5 μM, 4 hrs, listed as LDN
  LTP: reduced both; also recorded: strongly reduced
[1]; LDN-57444, 2 hour exposure
  LTP: approximately 70 % of vehicle treated slices
[1]; LDN-57444, 4 hour exposure
  LTP: ~65 % of vehicle treated slices
[1]; non-tetanized slices
  baseline transmission in slices without tetanic stimulation: did not affect baseline transmission
[2]; LDN 2.7 μM and 1 μM, 2-4 hr, listed as LDN
  BST: normal BST; also recorded: did not affect CA1-BST
[2]; LDN 5 μM, 15 min
  BST: did not affect BST or LTP; also recorded: did not affect CA1-BST
[2]; [4]
  BST: did not affect basal synaptic transmission (BST) or LTP; also recorded: does not affect CA1-BST
[2]; LDN 5 μM, 2 hrs
  BST: without affecting BST; also recorded: not affected
[2]; LDN 5 μM, 2 hrs, listed as LDN
  BST: without affecting BST; also recorded: not affected
[2]; LDN 5 μM, 4 hrs
  BST: strongly reduced
[2]; LDN 5 μM, 4 hrs, listed as LDN
  BST: reduced both; also recorded: strongly reduced
[2]; LDN-57444, 4 hour exposure
  BST: approximately 40 % of vehicle treated slices
phospho-CREB at Ser-133
  phospho-CREB enhancement / beneficial effect of TAT-HA-Uch-L1: blocked the beneficial effect of TAT-HA-Uch-L1; also recorded: did not allow the enhancement of phospho-CREB
phospho-CREB at Ser-133; listed as LDN
  phospho-CREB enhancement / beneficial effect of TAT-HA-Uch-L1: blocked the beneficial effect of TAT-HA-Uch-L1; also recorded: did not allow the enhancement of phospho-CREB
[3]
  GFP^u levels: much larger increase in GFP
